Laboratory results reported in patent publication US8481600B2, “Formulation of aspirin that is stable and showing minimal hydrolysis for parenteral administration for the treatment of cardiovascular and other disease states” (Academic Pharmaceuticals, Inc., priority 2007, dated 2013).

Columns and labels:
[1] = 25° C.; cited from earlier work
[2] = Dissolution of ASA in buffers and solvent systems (clear solution or suspension); format: physicochemical; conditions: for Dissolution of aspirin in buffer: aspirin 10 to 50 mg/ml in 10 ml; for Dissolution of aspirin in solvent system: aspirin up to 75 mg/ml
Protocol: Parenteral solutions comprising aspirin in buffers are typically prepared by mixing the required amount of aspirin in the buffer. The process is preferably carried out at room temperature, although other temperatures are acceptable for these preparations.
ASA (aspirin) was attempted to be dissolved in a number of solvent systems and then stability was determined if these solutions provided clear, colorless dissolution of ASA. In the following buffers aspirin was found riot to be soluble. These buffers are listed below: • 1.
In another series of experiments, dissolution of aspirin in solvents that are listed below were attempted to provide parenteral solutions suitable for intravenous administration comprising an effective amount of aspirin. […] The pH of the solutions ranged from 1.5 to 6.8. Ph adjustments were made using 1N NaOH solution. • 1. To water (2.0 ml), 1-propanol (0.5 ml) and Tween 20 (0.5 ml) was added to aspirin at a concentration level of up to 75 mg/ml. […] To water (2.0 ml), 1-propanol (0.5 ml) and Tween 40 (0.5 ml) was added to aspirin at a concentration level of up to 75 mg/ml. […] To water (2.0 ml), 1-propanol (0.5 ml) and Tween 60 (0.5 ml) was added to aspirin at a concentration level of up to 75 mg/ml. […] To water (2.0 ml), 1-propanol (0.5 ml) and Tween 80 (0.5 ml) was added to aspirin at a concentration level of up to 75 mg/ml. […] To water (2.0 ml), 1-propanol (0.5 ml) and PEG 300 was added to aspirin at a concentration level of up to 75 mg/ml. […] To water (2.0 ml), 1-propanol (0.5 ml) and PEG 400 was added to aspirin at a concentration level of up to 75 mg/ml. […] To water (2.0 ml), 1-propanol (0.5 ml) and PEG 600 was added to aspirin at a concentration level of up to 75 mg/ml. […] To water (2.0 ml), 1-propanol (0.5 ml) and glycerol was added to aspirin at a concentration level of up to 75 mg/ml. […] To water (2.0 ml), DMSO (1-2%) and Tween 20 was added to aspirin at a concentration level of up to 75 mg/ml. […] To water (2.0 ml), DMSO (1-2%) and Tween 40 was added to aspirin at a concentration level of up to 75 mg/ml. […] To water (2.0 ml), DMSO (1-2%) and Tween 60 was added to aspirin at a concentration level of up to 75 mg/ml. […] To water (2.0 ml), DMSO (1-2%) and Tween 80 was added to aspirin at a concentration level of up to 75 mg/ml. […] To glycerine (1 ml), 1-propanol (3 ml) and Tween 80 (0.2 ml) was added to aspirin at a concentration level of up to 75 mg/ml. […] To glycerine (1 ml), 1,2-propanol and Tween 80 (0.2 ml) was added to aspirin at a concentration level, of up to 75 mg/ml. […] To glycerine (1 ml), PEG 300 and Tween 80 (0.2 ml) was added to aspirin at a concentration of up to 75 mg/ml. […] To glycerine (1 ml), PEG 400 and Tween 80 (0.2 ml) was added to aspirin at a concentration of up to 75 mg/ml. […] To glycerine (1 ml), PEG 600 and Tween 80 (0.2 ml) was added to aspirin at a concentration of up to 75 mg/ml.
• 1. To N,N-Dimethylacetamide (NNDMA) (10 ml), aspirin was added at a concentration level of up to 500 mg/ml. […] To N,N-Dimethylacetamide (NNDMA) (10 ml) and ASA, glycerol (0.1 in 10 ml) added, Tween 20 (0.1 in 10 ml) were added. […] To N,N-Dimethylacetamide (NNDMA) (10 ml) and ASA, glycerol (0.1 in 10 ml), Tween 40 (0.1 in 10 ml) were added. […] To N,N-Dimethylacetamide (NNDMA) (10 ml) and ASA, glycerol (0.1 in 10 ml), Tween 60 (0.1 in 10 ml) were added. […] To N,N-Dimethylacetamide (NNDMA) (10 ml) and ASA, glycerol (0.1 in 10 ml), Tween 80 (0.1 in 10 ml) were added. […] To N,N-Dimethylacetamide (NNDMA) (10 ml) and ASA, glycerol (0.1 in 10 ml) were added. […] To N,N-Dimethylacetamide (NNDMA) (10 ml) and ASA, glycerol (0.1 in 10 ml), and DMSO (1-2%) were added. […] To N,N-Dimethylacetamide (NNDMA) (10 ml) and ASA, DMSO (1-2%) was added. […] The amount of aspirin present was greater than 98% at room temperature for 6 months. […]

Question: What does the source list for `CC(=O)Oc1ccccc1C(=O)O` [ASA, aspirin]?
Answer: solubility in water [1]: poor solubility; solubility in N,N-dimethylacetamide [2]: readily soluble; Dissolution of ASA in NNDMA and other diluents: appearance ([2]; 1. N,N-Dimethylacetamide (NNDMA) (10 ml), aspirin up to 500 mg/ml): Clear Purity; Dissolution of ASA in NNDMA and other diluents: appearance ([2]; 1. N,N-Dimethylacetamide (NNDMA) (10 ml), aspirin up to 500 mg/ml, listed as aspirin): clear solution; Dissolution of ASA in NNDMA and other diluents: appearance ([2]; 2. NNDMA (10 ml), Glycerol (0.1 in 10 ml), Tween 20 (0.1 in 10 ml)): clear solution; Dissolution of ASA in NNDMA and other diluents: appearance ([2]; 3. NNDMA (10 ml), Glycerol (0.1 in 10 ml), Tween 40 (0.1 in 10 ml)): clear solution; Dissolution of ASA in NNDMA and other diluents: appearance ([2]; 4. NNDMA (10 ml), Glycerol (0.1 in 10 ml), Tween 60 (0.1 in 10 ml)): clear solution; Dissolution of ASA in NNDMA and other diluents: appearance ([2]; 5. NNDMA (10 ml), Glycerol (0.1 in 10 ml), Tween 80 (0.1 in 10 ml)): clear solution; Dissolution of ASA in NNDMA and other diluents: appearance ([2]; 6. NNDMA (10 ml), Glycerol (0.1 in 10 ml)): clear solution; Dissolution of ASA in NNDMA and other diluents: appearance ([2]; 7. NNDMA (10 ml), Glycerol (0.1 in 10 ml), DMSO (1-2%)): clear solution; Dissolution of ASA in NNDMA and other diluents: appearance ([2]; 8. NNDMA (10 ml), DMSO (1.2%) (text: 1-2%)): clear solution; Dissolution of ASA in buffer ([2]; AMPSO buffer 0.05 M, aspirin 10 to 50 mg/ml in 10 ml (″ = not soluble), listed as aspirin): suspension that was not clear; Dissolution of ASA in buffer ([2]; AMPSO buffer 0.10 M, aspirin 10 to 50 mg/ml in 10 ml (″ = not soluble), listed as aspirin): suspension that was not clear; Dissolution of ASA in buffer ([2]; Bicine buffer 0.10 M, aspirin 10 to 50 mg/ml in 10 ml (″ = not soluble), listed as aspirin): suspension that was not clear; Dissolution of ASA in buffer ([2]; Bis Tris buffer 0.05 M, aspirin 10 mg/ml to 50 mg/ml in 10 ml): 0.05 M not soluble; Dissolution of ASA in buffer ([2]; Bis Tris buffer 0.05 M, aspirin 10 mg/ml to 50 mg/ml in 10 ml, listed as aspirin): suspension that was not clear; Dissolution of ASA in buffer ([2]; Bis Tris buffer 0.10 M, aspirin 10 mg/ml to 50 mg/ml in 10 ml): 0.10 M not soluble; Dissolution of ASA in buffer ([2]; Bis Tris buffer 0.10 M, aspirin 10 mg/ml to 50 mg/ml in 10 ml, listed as aspirin): suspension that was not clear; Dissolution of ASA in buffer ([2]; CAPS buffer 0.05 M, aspirin 10 to 50 mg/ml in 10 ml (″ = not soluble), listed as aspirin): suspension that was not clear; Dissolution of ASA in buffer ([2]; CAPS buffer 0.10 M, aspirin 10 to 50 mg/ml in 10 ml (″ = not soluble), listed as aspirin): suspension that was not clear; Dissolution of ASA in buffer ([2]; HEPES buffer 0.05 M, aspirin 10 to 50 mg/ml in 10 ml (″ = not soluble), listed as aspirin): suspension that was not clear; Dissolution of ASA in buffer ([2]; HEPES buffer 0.10 M, aspirin 10 to 50 mg/ml in 10 ml (″ = not soluble), listed as aspirin): suspension that was not clear; solubility ([2]; N,N-dimethylacetamide (NNDMA), organic solvent or mixture, thermodynamic from solid, read-out: concentration at which aspirin was found to be soluble in NNDMA): ≤ 500 mg/mL; Dissolution of ASA in buffer ([2]; Saline (normal) 0.10 M, aspirin 10 to 50 mg/ml in 10 ml (″ = not soluble), listed as aspirin): suspension that was not clear; Dissolution of ASA in buffer ([2]; TAPS buffer 0.05 M, aspirin 10 to 50 mg/ml in 10 ml (″ = not soluble), listed as aspirin): suspension that was not clear; Dissolution of ASA in buffer ([2]; TAPS buffer 0.10 M, aspirin 10 to 50 mg/ml in 10 ml (″ = not soluble), listed as aspirin): suspension that was not clear; Dissolution of ASA in buffer ([2]; Tricine buffer 0.10 M, aspirin 10 to 50 mg/ml in 10 ml (″ = not soluble), listed as aspirin): suspension that was not clear; Dissolution of aspirin in buffer ([2]; Tricine buffer (0.1M), list item 7): suspension that was not clear; Dissolution of aspirin in buffer ([2]; bicine buffer (0.1M), list item 8): suspension that was not clear; Dissolution of aspirin in solvent system ([2]; glycerine (1 ml), 1,2-propanol, Tween 80 (0.2 ml)): clear solution; Dissolution of aspirin in solvent system ([2]; glycerine (1 ml), 1-propanol (3 ml), Tween 80 (0.2 ml)): clear solution; Dissolution of aspirin in solvent system ([2]; glycerine (1 ml), PEG 300, Tween 80 (0.2 ml)): clear solution; Dissolution of aspirin in solvent system ([2]; glycerine (1 ml), PEG 400, Tween 80 (0.2 ml)): clear solution; Dissolution of aspirin in solvent system ([2]; glycerine (1 ml), PEG 600, Tween 80 (0.2 ml)): clear solution; Dissolution of aspirin in buffer ([2]; sodium acetate (pH 6.5 and 3.8) buffer (0.1M), list item 6): suspension that was not clear; Dissolution of aspirin in buffer ([2]; sodium acetate pH 6.5 and 3.8 buffer (0.1M), list item 15): suspension that was not clear; Dissolution of aspirin in solvent system ([2]; water (2.0 ml), 1-propanol (0.5 ml), PEG 300): clear solution; Dissolution of aspirin in solvent system ([2]; water (2.0 ml), 1-propanol (0.5 ml), PEG 400): clear solution; Dissolution of aspirin in solvent system ([2]; water (2.0 ml), 1-propanol (0.5 ml), PEG 600): clear solution; Dissolution of aspirin in solvent system ([2]; water (2.0 ml), 1-propanol (0.5 ml), Tween 20 (0.5 ml)): clear solution; Dissolution of aspirin in solvent system ([2]; water (2.0 ml), 1-propanol (0.5 ml), Tween 40 (0.5 ml)): clear solution; Dissolution of aspirin in solvent system ([2]; water (2.0 ml), 1-propanol (0.5 ml), Tween 60 (0.5 ml)): clear solution; Dissolution of aspirin in solvent system ([2]; water (2.0 ml), 1-propanol (0.5 ml), Tween 80 (0.5 ml)): clear solution; Dissolution of aspirin in solvent system ([2]; water (2.0 ml), 1-propanol (0.5 ml), glycerol): clear solution; Dissolution of aspirin in solvent system ([2]; water (2.0 ml), DMSO (1-2%), Tween 20): clear solution; Dissolution of aspirin in solvent system ([2]; water (2.0 ml), DMSO (1-2%), Tween 40): clear solution; Dissolution of aspirin in solvent system ([2]; water (2.0 ml), DMSO (1-2%), Tween 60): clear solution; Dissolution of aspirin in solvent system ([2]; water (2.0 ml), DMSO (1-2%), Tween 80): clear solution
